In one test the test system is SMCs in relation to ECs. The test can be described thus: activity ratio: efficiency towards SMCs / efficiency towards ECs. Particulars: for a.r. code: activity ratio class, order in Table 1 follows the calculated values. In kind it is cell-based. The method, then: For determination of vascular SMC proliferation, 0.5×10^4 viable rat aortic SMCs per well were seeded in SMC growth medium (DMEM/F12 medium with 20% serum, 30 μg/mL Gentamicin and 15 ng/mL Amphotericin) in 96-well plates. 24 h later, the medium was removed, the cells were washed once with SMC starvation medium (DMEM/F12 medium with 0.1% serum, 0.2% BSA, 30 μg/mL Gentamicin and 15 ng/mL Amphotericin) and incubated in starvation medium for further 24 h.
The quiescent cells were then pretreated for 30 min with the test compounds and induced to proliferate with 20 ng/mL platelet-derived growth factor (PDGF). Unstimulated cells were utilized for normalization and estimation of the basal level of proliferation. The final concentration of the solvent vehicle, dimethyl sulfoxide (DMSO), was the same (0.1%) in all wells. 48 h later, the SMC proliferation was quantified by resazurin dye conversion for 2 h as previously described (H. Joa et al., J. Nat. Prod. 74(6), 1513-6 (2011)).
For determination of endothelial cell proliferation, 0.5×10^4 HUVECtert immortalized human umbilical vein endothelial cells (H. B. Schiller et al., Mol. Biol. Cell. 20(3), 745-756 (2009)) were seeded in 96-well plates for 24 h in HUVEC Complete Medium (EBM™ growth medium supplemented with 10% fetal bovine serum, EBM™ SingleQuots (Lonza, Basel, Switzerland), 100 U/mL benzylpenicillin, 100 μg/mL streptomycin, and 1% amphotericin). Afterwards, the medium was exchanged with fresh HUVEC Complete Medium and cells were treated with the indicated compounds for 48 h. After the end of the incubation period, the medium was removed, the cells were washed once with 200 μL/well PBS, and treated with 150 μL HUVEC Complete Medium containing 10 μg/mL resazurin. 2 h later, the fluorescence was measured at a wavelength of 580 nm, with excitation wavelength 535 nm in a 96-well plate reader (Tecan GENios Pro; Tecan Group Ltd., Mannedorf, Switzerland).
In every case, the percentage of viable cells was subtracted from 1, in order to obtain a measure of efficiency of the test compounds towards each particular type of cells, and subsequently, the efficiency quotient towards SMCs and ECs was calculated and taken as the “activity ratio” and thus as a measure of selective efficiency of each test compound towards SMCs in relation to ECs. For example, the synthetic Leoligin with the bio ID 2418 prepared in Comparative Example 27 as compound 10-22 gave the following results:
Due to the usual fluctuations in determining surviving cells, which amount to approximately ±10%, and due to the relatively strong resulting fluctuations in calculating quotients—especially if the inhibitory effect of said novel compounds towards ECs is very poor—said threshold value of 1.50 for the activity ratio, as already mentioned above, was introduced.
In the following, a table listing every compound prepared in examples and comparative Examples for which an activity ratio (a.r.) of >1.0 was determined, is given.

In test [1] the test system is HUVECtert immortalized human umbilical vein endothelial cells. The test is described as follows: endothelial cell proliferation (resazurin). In kind it is cell-based. A general note: Alamar Blue is a resazurin reagent that responds to reducing activity.
A further test deals with rat aortic SMCs. The test can be described thus: vascular SMC proliferation (PDGF-induced, resazurin conversion). It is filed as cell-based.
In test [2] the test system is SMCs. The settings on record: cited from earlier work.
A further test relates to ECs. The settings on record: cited from earlier work.
Test [3] has as its system SMCs. The test can be described thus: IC50 of Leoligin for SMCs (A. Knolz, Master's Thesis, University of Innsbruck, 2008). It is filed as cell-based.

Usually pIC50 stands for the IC50 on a negative log10 scale, so that one unit is a factor of ten.

SMILES strings stand for the structures. pIC50: −log10 of the molar value.

In the case of `COc1ccc(C[C@H]2CO[C@H](c3cc(OC)c(OC)c(OC)c3)[C@H]2COC(=O)C2CCCC2)cc1OC` [Example 40, ((2S,3R,4R)-4-(3,4-dimethoxybenzyl)-2-(3,4,5-trimethoxyphenyl)tetrahydro-furan-3-yl)methyl cyclopentanecarboxylate], the a.r. code entry in the test with SMCs in relation to ECs is “AA (a.r. ≧ 2.0)”.
Turning to `C/C=C(/C)C(=O)OC[C@H]1[C@@H](Cc2ccccn2)CO[C@@H]1c1ccc(OC)c(OC)c1` [Example 12, (Z)-((2S,3R,4R)-2-(3,4-dimethoxyphenyl)-4-(pyridin-2-ylmethyl)tetrahydro-furan-3-yl)methyl 2-methylbut-2-enoate], in the test on SMCs in relation to ECs, the a.r. code result is “AAA (a.r. ≧ 5.0)”.
For `COc1cc([C@H]2OC[C@H](Cc3ccccc3)[C@@H]2CO)cc(OC)c1OC` [Example 7, ((2S,3R,4R)-4-benzyl-2-(3,4,5-trimethoxyphenyl)tetrahydrofuran-3-yl)methanol], the a.r. code result with SMCs in relation to ECs is “AAA (a.r. ≧ 5.0)”.
With `COc1ccc([C@H]2OC[C@H](Cc3ccc(C(C)(C)C)cc3)[C@@H]2CO)cc1OC` [Example 1, ((2S,3R,4R)-4-(4-(tert-butyl)benzyl)-2-(3,4-dimethoxyphenyl)tetrahydrofuran-3-yl)methanol], in the test on SMCs in relation to ECs, the a.r. code result is recorded as “A (a.r. ≧ 1.50)”.
Regarding `COc1ccc(C[C@H]2CO[C@H](c3cc(OC)c(OC)c(OC)c3)[C@H]2COC(=O)C(C)C)cc1OC` [Example 38, ((2S,3R,4R)-4-(3,4-dimethoxybenzyl)-2-(3,4,5-trimethoxyphenyl)tetrahydro-furan-3-yl)methyl isobutyrate], in the test on SMCs in relation to ECs, the a.r. code result is listed as “AAA (a.r. ≧ 5.0)”.
In the case of `COc1ccc([C@H]2OC[C@H](Cc3ccc(C(C)(C)C)cc3)[C@@H]2COC(=O)C2CCCC2)cc1OC` [Example 30, ((2S,3R,4R)-4-(4-(tert-butyl)benzyl)-2-(3,4-dimethoxyphenyl)tetrahydrofuran-3-yl)methyl cyclopentanecarboxylate], the a.r. code entry in the test on SMCs in relation to ECs is reported as “AA (a.r. ≧ 2.0)”.
On the same count and under the same terms, next, `COc1ccc(C[C@H]2CO[C@H](c3ccc(OC)c(OC)c3)[C@H]2COC(=O)C=C(C)C)cc1OC` [Example 25, ((2S,3R,4R)-4-(3,4-dimethoxybenzyl)-2-(3,4-dimethoxyphenyl)tetrahydrofuran-3-yl)methyl 3-methylbut-2-enoate]: “AA (a.r. ≧ 2.0)”.
In the case of `C/C=C(\C)C(=O)OC[C@H]1[C@@H](Cc2ccc(OC)c(OC)c2)CO[C@@H]1c1ccc(OC)c(OC)c1` [Comparative Example 35, (E)-((2S,3R,4R)-4-(3,4-dimethoxybenzyl)-2-(3,4-dimethoxyphenyl)tetrahydro-furan-3-yl)methyl 2-methylbut-2-enoate], in the test with SMCs in relation to ECs, the a.r. code entry is reported as “V (1.0 < a.r. < 1.50)”.
With `COc1ccc(C[C@H]2CO[C@H](c3ccc(F)cc3)[C@H]2COC(=O)CC(C)C)cc1OC` [Example 32, ((2S,3R,4R)-4-(3,4-dimethoxybenzyl)-2-(4-fluorophenyl)tetrahydrofuran-3-yl)-methyl 3-methylbutanoate], the a.r. code result with SMCs in relation to ECs is listed as “AAA (a.r. ≧ 5.0)”.
Take `COc1cc([C@H]2OC[C@H](Cc3ccc(-c4ccccc4)cc3)[C@@H]2CO)cc(OC)c1OC` [Example 9, ((2S,3R,4R)-4-([1,1′-biphenyl]-4-ylmethyl)-2-(3,4,5-trimethoxyphenyl)-tetrahydrofuran-3-yl)methanol]: the a.r. code result in the test on SMCs in relation to ECs is listed as “AA (a.r. ≧ 2.0)”.
Consider `C/C=C(/C)C(=O)OC[C@H]1[C@@H](Cc2ccc(C(=O)OCC)cc2)CO[C@@H]1c1cc(OC)c(OC)c(OC)c1` [Example 22, ethyl 4-(((3R,4R,5S)-4-((((Z)-2-methylbut-2-enoyl)oxy)methyl)-5-(3,4,5-trimethoxyphenyl)tetrahydrofuran-3-yl)methyl)benzoate], for which the a.r. code result with SMCs in relation to ECs is on record as “AA (a.r. ≧ 2.0)”.
Still for that read-out and setting: next, `C=CCOC[C@H]1[C@@H](Cc2ccc(OC)c(OC)c2)CO[C@@H]1c1ccc(OC)c(OC)c1` [Example 42, (2S,3R,4R)-3-((allyloxy)methyl)-4-(3,4-dimethoxybenzyl)-2-(3,4-dimethoxy-phenyl)tetrahydrofuran]: “AAA (a.r. ≧ 5.0)”; `COc1ccc(C[C@H]2CO[C@H](c3ccc(OC)c(OC)c3)[C@H]2COC(=O)CC(C)(C)C)cc1OC` [Comparative Example 42, ((2S,3R,4R)-4-(3,4-dimethoxybenzyl)-2-(3,4-dimethoxyphenyl)tetrahydrofuran-3-yl)methyl 3,3-dimethylbutanoate]: “V (1.0 < a.r. < 1.50)”; `C/C=C(/C)C(=O)OC[C@H]1[C@@H](Cc2ccc(C(F)(F)F)cc2)CO[C@@H]1c1ccccc1` [Example 16, (Z)-((2S,3R,4R)-2-phenyl-4-(4-(trifluoromethyl)benzyl)tetrahydrofuran-3-yl)-methyl 2-methylbut-2-enoate]: “AAA (a.r. ≧ 5.0)”.
Turning to `COc1cc([C@H]2OC[C@H](Cc3ccc(C(C)(C)C)cc3)[C@@H]2CO)cc(OC)c1OC` [Comparative Example 13, ((2S,3R,4R)-4-(4-(tert-butyl)benzyl)-2-(3,4,5-trimethoxyphenyl)tetrahydrofuran-3-yl)methanol], in the test on SMCs in relation to ECs, the a.r. code result is on record as “V (1.0 < a.r. < 1.50)”.
On the same count and under the same terms, to `C/C=C(/C)C(=O)OC[C@H]1[C@@H](Cc2ccccc2)CO[C@@H]1c1cc(OC)c(OC)c(OC)c1` [Comparative Example 31, (Z)-((2S,3R,4R)-4-benzyl-2-(3,4,5-trimethoxyphenyl)tetrahydrofuran-3-yl)-methyl 2-methylbut-2-enoate] belongs “V (1.0 < a.r. < 1.50)”; to `C/C=C(/C)C(=O)OC[C@H]1[C@@H](Cc2ccc(C(F)(F)F)cc2)CO[C@@H]1c1cc(OC)c(OC)c(OC)c1` [Comparative Example 32, (Z)-((2S,3R,4R)-4-(4-(trifluoromethyl)benzyl)-2-(3,4,5-trimethoxyphenyl)-tetrahydrofuran-3-yl)methyl 2-methylbut-2-enoate], “V (1.0 < a.r. < 1.50)”.
As for `C/C=C(/C)C(=O)OC[C@H]1[C@@H](Cc2ccc(OC)c(OC)c2)CO[C@@H]1c1ccc(OC)c(OC)c1` [Leoligin, (Z)-((2S,3R,4R)-4-(3,4-dimethoxybenzyl)-2-(3,4-dimethoxyphenyl)tetrahydro-furan-3-yl)methyl 2-methylbut-2-enoate], in the test with SMCs in relation to ECs (inverse of 0.39), the “inverse value of activity ratio (factor of selective inhibition of ECs relative to SMCs)” value was “approximately 2.5”. In addition, the “Efficiency towards ECs” value in test [1] (1 minus fraction of surviving ECs) is on record as 1-0.51 = 0.49. Moreover, in test [1] (HUVECtert, 48 h, resazurin), the “Percentage of surviving ECs” value is 0.51 (51%). In the test on rat aortic SMCs (1 minus fraction of surviving SMCs), the “Efficiency towards SMCs” value is 1-0.81 = 0.19. Moreover, in the test with rat aortic SMCs (rat aortic SMCs, 20 ng/mL PDGF, 48 h, resazurin), the “Percentage of surviving SMCs” value is recorded as 0.81 (81%). Moreover, the results for the pIC50 with SMCs [2] and in the test on ECs were 4.26 and 4.75, respectively. Further, the “inverse value of IC50 ratio (measure for selective inhibition of ECs compared to SMCs)” value in the test with SMCs [3] (from cited IC50 values) is on record as 3.0. For the same compound, the “IC50 ratio (measure for selective inhibition of SMCs compared to ECs)” value in the test on SMCs [3] (from cited IC50 values for ECs and SMCs) was determined as 0.33.
Take `C/C=C(/C)C(=O)OC[C@H]1[C@@H](Cc2ccc(C(F)(F)F)cc2)CO[C@@H]1c1ccc(OC)c(OC)c1` [Comparative Example 24, (Z)-((2S,3R,4R)-2-(3,4-dimethoxyphenyl)-4-(4-(trifluoromethyl)benzyl)tetra-hydrofuran-3-yl)methyl 2-methylbut-2-enoate]: the a.r. code result in the test on SMCs in relation to ECs is on record as “V (1.0 < a.r. < 1.50)”.
Take `COc1ccc(C[C@H]2CO[C@H](c3ccc(OC)c(OC)c3)[C@H]2COC(=O)c2ccc3ccccc3c2)cc1OC` [Comparative Example 38, ((2S,3R,4R)-4-(3,4-dimethoxybenzyl)-2-(3,4-dimethoxyphenyl)tetrahydrofuran-3-yl)methyl 2-naphthoate]: the a.r. code entry in the test with SMCs in relation to ECs is reported as “V (1.0 < a.r. < 1.50)”.

(Values after US20170157301A1, “LEOLIGIN DERIVATIVES AS SMOOTH MUSCLE CELL PROLIFERATION INHIBITORS” (TECHNISCHE UNIVERSITAET WIEN, priority 2014, published 2017).)
